Values quoted from earlier work in patent US20050239743A1, “Compositions and methods to inhibit restenosis” (Pro-Pharmaceuticals, Inc., priority 2004, published 2005).

Conditions: long-term use 10,000 units/day, s.c., following coronary angioplasty

abnormal hemorrhage supervening: 41%
Substance: heparin
coronary restenosis, share of the cases (control restenosis value 33%): 82%
